Reference: US20220041616A1, “SPIRO COMPOUND AND MEDICAL USES THEREOF” (The National Institutes of Pharmaceutical R&D Co., Ltd., priority 2018, published 2022)

What follows are molecules tested on HepG2 cells (assay: In vitro inhibition of fatty acid synthesis in HepG2 cells ([14C]-acetate incorporation)). Settings: 1 h compound, then 5 h [2-14C]-acetic acid.
Assay type: cell-based, human
Experimental: Human liver tumor cells (HepG2 cells) with strong fatty acid synthesis ability were selected. The sample to be tested was added and incubated for 1 hour. Isotope-labeled [^14C]-sodium acetate was added to the cell culture medium and incubated for 5 hours. Then the cells were lysed, and the fatty acid components in the cell were extracted and separated. The relative content of the isotope integrated into the fatty acid was analyzed, so as to detect the inhibitory effect of the compound on fatty acid synthesis in HepG2 cells at different concentrations, and the IC50 value was calculated.
a. HepG2 cells were purchased from the American type culture collection (ATCC) resource bank. Cells were cultured in DMEM (GIBCO) containing 10% fetal bovine serum (GIBCO), penicillin (100 units/mL) and streptomycin (100 μg/mL) (GIBCO), and then incubated in a 37° C. incubator containing 5% carbon dioxide, and passaged once every 2 to 3 days.
b. On the first day, HepG2 cells were inoculated in a 24-well cell culture plate at 2×10^5 per well, and were incubated in a 37° C. incubator containing 5% carbon dioxide.
c. On the fourth day, the medium was changed to that containing the compound. The initial concentration of the compound was 3 μM or 0.3 μM, 3-fold dilution, 8 concentration gradients, and the final concentration of DMSO was 0.5% (v/v). The plate was incubated in a 37° C. incubator containing 5% carbon dioxide for 1 hour. GS-0976 was positive compound control; the reaction system with no compound but DMSO at a final concentration of 0.5% was negative control.
d. 1 μCi [2-^14C]-acetic acid was added to each well, and incubated for 5 hours in a 37° C. incubator containing 5% carbon dioxide.
e. The medium was first transferred to 15 mL centrifuge tubes. 0.5 mL of 0.1 M NaOH was added to each well of cells, and the lysed cell suspension was added to the corresponding 15 mL centrifuge tubes. 1 mL of ethanol and 0.17 mL of 50% KOH were added to each tube, and incubated in a water bath at 90° C. for 1 hour.
f. The sample were taken out and cooled to room temperature, then 5 mL petroleum ether was added to each tube, inverted several times, and centrifuged at 1000 rpm for 5 min. The upper organic phase was discarded and the aqueous phase was kept for fatty acid extraction. 1 mL of concentrated hydrochloric acid (its pH was ensured to be below 1) was added to each tube.
g. 5 mL petroleum ether was added to each tube, invert several times and centrifuged at 1000 rpm for 5 min. 4 mL petroleum ether layer was transferred to a new glass tube (18×180 mm). This step was repeated once.
h. The extracts were collected and placed in a water bath at 64° C. to evaporate for 30 min. Fatty acids were dissolved with 400 μL chloroform/n-hexane (1:1).
i. 50 μL sample were placed in iso-plate (Perkinelmer), 200 μL ULTIMA GOLD (Perkinelmer) was added to each well and incubated for 10 min at room temperature.
j. MicroBeta (Perkinelmer) was used to record the CPM scintillation signal.
The average value of the positive and negative control well and the standard deviation were calculated. IC50 was fitted by using XLFit 5.3.1.3 (2006-2011 ID Business Solutions Limited) with 4-Parameter Logistic Model or Sigmoidal Dose-Response Model:
Y=(Bottom+((Top−Bottom)/(1+((Log IC50/X)^Hillslope)))),
wherein X is the logarithm of the compound concentration, Y is CPM (count per minute); Top and Bottom are the Y values at the highest and lowest plateau of the curve; Hillslope is the Hill constant.

IC50 [nM] | Structure (SMILES)
< 50 | COc1ccccc1C(CN1C(=O)C2(CCC(C(=O)O)C2)C(=O)c2c1sc(-c1ncco1)c2C)OC1CCOCC1 (mixture of isomers) [Compound 5y, 7′-(2-(2-methoxyphenyl)-2-((tetrahydro-2H-pyran-4-yl)oxy)ethyl)-3′-methyl-2′-(oxazol-2-yl)-4′,6′-dioxo-6′,7′-dihydro-4′H-spiro[cyclopentane-1,5′-thieno[2,3-b]pyridine]-3-carboxylic Acid]

Same assay, conditions: Homo sapiens, HepG2, 1 h compound, then 5 h [2-14C]-acetic acid

IC50 [nM] | Structure (SMILES)
50 to 500 | COc1ccccc1C(CN1C(=O)C2(CCC(C(=O)O)C2)C(=O)c2c1sc(-c1ncco1)c2C)OC1CCOCC1 (mixture of isomers) [Compound 5x, 7′-(2-(2-methoxyphenyl)-2-((tetrahydro-2H-pyran-4-yl)oxy)ethyl)-3′-methyl-2′-(oxazol-2-yl)-4′,6′-dioxo-6′,7′-dihydro-4′H-spiro[cyclopentane-1,5′-thieno[2,3-b]pyridine]-3-carboxylic Acid]
< 50 | COc1ccccc1C(CN1C(=O)C2(CC(C(=O)O)C2)C(=O)c2c1sc(-c1ncco1)c2C)OC1CCOCC1 (mixture of isomers) [Compound 8, 7′-(2-(2-methoxyphenyl)-2-((tetrahydro-2H-pyran-4-yl)oxy)ethyl)-3′-methyl-2′-(oxazol-2-yl)-4′,6′-dioxo-6′,7′-dihydro-4′H-spiro[cyclobutane-1,5′-thieno[2,3-b]pyridine]-3-carboxylic Acid]
< 50 | COc1ccccc1C(CN1C(=O)C2(CCC(C(=O)O)C2)C(=O)c2c1sc(-c1ncco1)c2C)OC1CCOCC1 (single isomer, unassigned) [Compound 5b, 7′-(2-(2-methoxyphenyl)-2-((tetrahydro-2H-pyran-4-yl)oxy)ethyl)-3′-methyl-2′-(oxazol-2-yl)-4′,6′-dioxo-6′,7′-dihydro-4′H-spiro[cyclopentane-1,5′-thieno[2,3-b]pyridine]-3-carboxylic Acid]
< 50 | COc1ccccc1C(CN1C(=O)C2(CC(C(=O)O)C2)C(=O)c2c1sc(-c1ncco1)c2C)OC1CCOCC1 (single isomer, unassigned) [Compound 8d, 7′-(2-(2-methoxyphenyl)-2-((tetrahydro-2H-pyran-4-yl)oxy)ethyl)-3′-methyl-2′-(oxazol-2-yl)-4′,6′-dioxo-6′,7′-dihydro-4′H-spiro[cyclobutane-1,5′-thieno[2,3-b]pyridine]-3-carboxylic Acid]
< 50 | COc1ccccc1[C@H](CN1c2sc(-c3ncco3)c(C)c2C(=O)[C@]2(C[C@H](C(=O)O)C2)C1=O)OC1CCOCC1 [Compound 8c, 7′-(2-(2-methoxyphenyl)-2-((tetrahydro-2H-pyran-4-yl)oxy)ethyl)-3′-methyl-2′-(oxazol-2-yl)-4′,6′-dioxo-6′,7′-dihydro-4′H-spiro[cyclobutane-1,5′-thieno[2,3-b]pyridine]-3-carboxylic Acid]
